Laboratory results from US20180099931A1 (AbbVie S.à.r.l., priority 2016, published 2018).
Like-named read-outs stand apart in the source and are kept apart here. Each block holds one molecule with its values, some of them ahead of it.

Target: T1, F508delCFTR (Homo sapiens, UniProt P13569, DEL508-508)
T1 construct: expressed in transfected cells; host or cells: CFBE41o- human lung-derived epithelial cells (CFBE4lo-F508delCFTR-HRP), doxycycline-inducible
Assay: Cell Surface Expression-Horse Radish Peroxidase (CSE-HRP) Assay;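 as to Maximum % activity (with co-corrector): co-corrector and positive control are both the same reference corrector at 2 µM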;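 as to Maximum % activity (without co-corrector): percent of the 2 µM on-plate positive control corrector response above DMSO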
Assay type: cell-based
Conditions: for Maximum % activity (with co-corrector) / Emax: maximum at any tested concentration, normalized to on-plate positive control; for Emax: read-out: Maximum % activity (without co-corrector)

[1] = test compound without co-corrector, read-out: EC50 (without co-corrector)
[2] = with co-corrector (2 μM of 3-[(2R,4R)-4-({[1-(2,2-difluoro-1,3-benzodioxol-5-yl)cyclopropyl]carbonyl}amino)-7-methoxy-3,4-dihydro-2H-chromen-2-yl]benzoic acid), read-out: EC50 (with co-corrector)
[3] = CSE-HRP, test compound without co-corrector, read-out: EC50 (without co-corrector)
[4] = CSE-HRP, with co-corrector (2 μM of 3-[(2R,4R)-4-({[1-(2,2-difluoro-1,3-benzodioxol-5-yl)cyclopropyl]carbonyl}amino)-7-methoxy-3,4-dihydro-2H-chromen-2-yl]benzoic acid), read-out: EC50 (with co-corrector)
[5] = CSE-HRP, with co-corrector (2 μM)
[6] = test compound without co-corrector
[7] = with co-corrector (2 μM of 3-[(2R,4R)-4-({[1-(2,2-difluoro-1,3-benzodioxol-5-yl)cyclopropyl]carbonyl}amino)-7-methoxy-3,4-dihydro-2H-chromen-2-yl]benzoic acid)

T1 sequence (P13569 with tags, fused parts or gaps DEL508-508): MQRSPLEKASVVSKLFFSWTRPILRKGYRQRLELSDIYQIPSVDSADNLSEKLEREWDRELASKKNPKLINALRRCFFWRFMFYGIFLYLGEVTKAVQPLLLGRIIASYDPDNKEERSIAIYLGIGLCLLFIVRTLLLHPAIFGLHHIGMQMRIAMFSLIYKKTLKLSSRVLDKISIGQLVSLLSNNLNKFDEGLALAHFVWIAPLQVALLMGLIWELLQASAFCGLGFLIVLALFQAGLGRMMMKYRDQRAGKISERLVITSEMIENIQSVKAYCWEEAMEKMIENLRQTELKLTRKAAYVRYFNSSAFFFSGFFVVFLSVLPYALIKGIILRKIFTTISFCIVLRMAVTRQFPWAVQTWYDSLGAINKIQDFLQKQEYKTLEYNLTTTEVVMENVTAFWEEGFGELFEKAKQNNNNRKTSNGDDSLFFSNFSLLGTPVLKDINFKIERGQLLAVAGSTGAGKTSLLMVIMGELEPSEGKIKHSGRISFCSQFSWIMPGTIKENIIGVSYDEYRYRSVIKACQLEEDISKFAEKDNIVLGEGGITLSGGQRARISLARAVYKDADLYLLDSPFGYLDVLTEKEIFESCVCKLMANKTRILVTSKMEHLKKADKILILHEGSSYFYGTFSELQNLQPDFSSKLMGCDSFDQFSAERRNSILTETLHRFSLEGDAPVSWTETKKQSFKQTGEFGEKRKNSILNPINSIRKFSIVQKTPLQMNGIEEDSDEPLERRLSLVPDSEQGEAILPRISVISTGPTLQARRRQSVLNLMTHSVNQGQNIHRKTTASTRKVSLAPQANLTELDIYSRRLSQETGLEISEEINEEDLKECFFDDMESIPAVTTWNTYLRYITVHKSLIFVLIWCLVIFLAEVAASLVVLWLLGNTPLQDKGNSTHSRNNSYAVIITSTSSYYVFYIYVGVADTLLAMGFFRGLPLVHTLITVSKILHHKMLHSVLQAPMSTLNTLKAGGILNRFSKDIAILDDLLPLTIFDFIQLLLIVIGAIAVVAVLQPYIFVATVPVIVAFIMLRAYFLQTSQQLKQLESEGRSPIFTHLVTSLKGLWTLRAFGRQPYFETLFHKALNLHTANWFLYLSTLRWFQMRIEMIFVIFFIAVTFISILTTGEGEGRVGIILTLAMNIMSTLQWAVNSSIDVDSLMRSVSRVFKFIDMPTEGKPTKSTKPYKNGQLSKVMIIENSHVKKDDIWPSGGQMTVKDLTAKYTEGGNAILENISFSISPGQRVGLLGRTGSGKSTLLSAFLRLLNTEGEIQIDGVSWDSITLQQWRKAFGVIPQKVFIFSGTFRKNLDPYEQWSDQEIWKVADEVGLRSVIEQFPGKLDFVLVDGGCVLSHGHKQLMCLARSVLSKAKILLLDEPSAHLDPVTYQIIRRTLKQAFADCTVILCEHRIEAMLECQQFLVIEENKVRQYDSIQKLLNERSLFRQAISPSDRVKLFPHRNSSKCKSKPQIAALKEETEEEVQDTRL

Structure (SMILES): COc1ccc(C(C)(C)C)cc1CN[C@H]1[C@H](C(C)(C)C)[C@@H](C(=O)O)N(C(=O)C(C)n2cc(Cl)cn2)[C@H]1c1ccccc1 (stereo partly shown) [Example I-103]
- EC50 [1]: 1 to 10 µM
- EC50 [2]: 1 to 10 µM
- Maximum % activity (with co-corrector) (with co-corrector (2 μM)): +++ (≥350)
- Emax (without co-corrector): 100 to 200%

Structure (SMILES): CC(C)(C)[C@H]1[C@H](NCc2ccc(F)c(Oc3ccccc3)c2)[C@H](c2ccccc2)N(C(=O)C2CCCCC2)[C@@H]1C(=O)O [II-130]
- EC50 [3]: 1 to 10 µM
- EC50 [4]: 1 to 10 µM
- Maximum % activity (with co-corrector) [5]: ++ (≥150 and <350)
- Emax (CSE-HRP, without co-corrector): < 100%

Structure (SMILES): COc1cc(C)ccc1CN[C@H]1[C@H](C(C)(C)C)[C@@H](C(=O)O)N(C(=O)C2CCCCC2)[C@H]1c1cccnc1OC [II-138]
- EC50 [3]: 1 to 10 µM
- EC50 [4]: 1 to 10 µM
- Maximum % activity (with co-corrector) [5]: +++ (≥350)
- Emax (CSE-HRP, without co-corrector): 100 to 200%

Structure (SMILES): COc1nc(C(C)(C)C)ccc1CN[C@H]1[C@H](C(C)(C)C)[C@@H](C(=O)O)N(C(=O)OC(C)C)[C@H]1c1ccccc1C(C)C [Example I-216]
- EC50 [1]: < 1 µM
- EC50 [2]: < 1 µM
- Maximum % activity (with co-corrector) (with co-corrector (2 μM)): +++ (≥350)
- Emax (without co-corrector): > 200%

Structure (SMILES): COc1ccc(C(C)(C)C)cc1CN[C@H]1[C@H](C(C)(C)C)[C@@H](C(=O)O)N(C(=O)C2Cc3ccccc3CO2)[C@H]1c1ccccc1 (stereo partly shown) [II-300]
- EC50 [3]: < 1 µM
- EC50 [4]: < 1 µM
- Maximum % activity (with co-corrector) [5]: +++ (≥350)
- Emax (CSE-HRP, without co-corrector): > 200%

Structure (SMILES): COc1ccc(C(C)(C)C)cc1CN[C@H]1[C@H](C(C)(C)C)[C@@H](C(=O)O)N(C(=O)Cc2cc(C)sc2C)[C@H]1c1ccccc1 [II-208]
- EC50 [3]: 1 to 10 µM
- EC50 [4]: < 1 µM
- Maximum % activity (with co-corrector) [5]: +++ (≥350)
- Emax (CSE-HRP, without co-corrector): > 200%

Other lines, results leading:

- EC50 [1]: 1 to 10 µM
- EC50 [2]: 1 to 10 µM
- Maximum % activity (with co-corrector) (with co-corrector (2 μM)): ++ (≥150 and <350)
- Emax (without co-corrector): < 100%
Structure (SMILES): COc1ccc(C(C)(C)C)cc1CN[C@@H]1[C@@H](C(C)(C)C)[C@H](C(=O)O)N(C(=O)C2CCCCC2)[C@H]1c1ccccc1 [Example I-173]

- EC50 [3]: 1 to 10 µM
- EC50 [4]: < 1 µM
- Maximum % activity (with co-corrector) [5]: +++ (≥350)
- Emax (CSE-HRP, without co-corrector): 100 to 200%
Structure (SMILES): COc1ccc(C(C)(C)C)cc1CN[C@H]1[C@H](C(C)(C)C)[C@@H](C(=O)O)N(C(=O)c2cccc3c2OCC3)[C@H]1c1ccccc1 [II-222]

- EC50 [1]: > 10 µM
- EC50 [2]: 1 to 10 µM
- Maximum % activity (with co-corrector) (with co-corrector (2 μM)): ++ (≥150 and <350)
- Emax (without co-corrector): < 100%
Structure (SMILES): CC(C)(C)[C@H]1[C@H](NCc2ccc3c(c2)OCCO3)[C@H](c2ccccc2)N(C(=O)C2CCCCC2)[C@@H]1C(=O)O [Example I-47]

- Emax [6]: > 200%
- EC50 [1]: 1 to 10 µM
- Maximum % activity (with co-corrector) [7]: +++ (≥350)
- EC50 [2]: 1 to 10 µM
Structure (SMILES): COc1ccc(OC(F)(F)F)cc1CN[C@H]1[C@H](C(C)(C)C)[C@@H](C(=O)O)N(C(=O)OC(C)C)[C@H]1c1cccnc1N(C)C [II-552]

- EC50 [3]: 1 to 10 µM
- EC50 [4]: 1 to 10 µM
- Maximum % activity (with co-corrector) [5]: ++ (≥150 and <350)
- Emax (CSE-HRP, without co-corrector): < 100%
Structure (SMILES): COc1cc(C(F)(F)F)ccc1CN[C@@H]1[C@@H](C(C)(C)C)[C@H](C(=O)O)N(C(=O)C2CCC(F)(F)CC2)[C@@H]1c1ccccc1 (racemic) [II-69]

- Emax [6]: < 100%
- EC50 [1]: > 10 µM
- Maximum % activity (with co-corrector) [7]: ++ (≥150 and <350)
- EC50 [2]: 1 to 10 µM
Structure (SMILES): CC(C)(C)[C@@H]1[C@@H](NCc2cc(C(F)(F)F)cnc2N)[C@@H](c2ccccc2)N(C(=O)C2CCCCC2)[C@H]1C(=O)O (racemic) [III-74]

- EC50 [1]: < 1 µM
- EC50 [2]: < 1 µM
- Maximum % activity (with co-corrector) (with co-corrector (2 μM)): +++ (≥350)
- Emax (without co-corrector): > 200%
Structure (SMILES): COc1ncc(C2CCC2)cc1CN(C)[C@H]1[C@H](C(C)(C)C)[C@@H](C(=O)O)N(C(=O)[C@@H]2CCCCO2)[C@H]1c1ccccc1C(C)C [Example 119, (2S,3S,4S,5S)-3-tert-butyl-4-{[(5-cyclobutyl-2-methoxypyridin-3-yl)methyl](methyl)amino}-1-[(2S)-oxane-2-carbonyl]-5-[2-(propan-2-yl)phenyl]pyrrolidine-2-carboxylic acid]
